{
  "source": "patent US5688938A",
  "about": "“Calcium receptor-active molecules” (priority 1995, dated 1997)",
  "key": {"[1]": {"experiment": "serum ionized Ca^2+ in parathyroidectomized rats", "format": "in vivo, rat", "details": "oral", "description": "To determine the primary target tissue upon which NPS R-467 acts to cause a hypocalcemic response, the parathyroid glands in rats were surgically removed. Animals receiving a total parathyroidectomy become hypocalcemic and are largely dependent upon dietary calcium to maintain serum Ca^2+ homeostasis."}, "[2]": {"experiment": "serum/plasma Ca^2+, PTH and calcitonin in rats, oral", "format": "in vivo", "details": "rat, oral", "description": "Rats (male, Sprague-Dawley, 250-300 g) were fed standard rat chow and fasted overnight prior to the experiment. NPS R-467 was suspended in corn oil and administered as a single oral dose through a gavage needle. Three hours later a sample of blood was taken from the tail vein and assessed for ionized Ca^2+ levels."}, "[3]": {"experiment": "single oral doses of NPS R-568 in a healthy post-menopausal person", "format": "in vivo, human", "description": "A range of single oral doses was used to assess safety, tolerance, and changes in primary hyperparathyroidism markers (e.g., plasma concentrations of parathyroid hormone and ionized serum calcium) and of serum calcitonin."}, "bovine parathyroid cells": {"test_system": "bovine parathyroid cells", "experiment": "PTH secretion from bovine parathyroid cells", "format": "cell-based", "text": "In most experiments, cells loaded with fura-2 were also used in studies of PTH secretion."}, "human parathyroid cells": {"test_system": "human parathyroid cells", "experiment": "PTH secretion from human parathyroid cells", "format": "cell-based", "experimental": "PTH secretion was measured by first suspending cells in PCB containing 0.5 mM CaCl2 and 0.1% BSA.\nFor human cells, a commercially available radioimmunoassay kit (INS-PTH; Nichols Institute, Los Angeles, Calif.) which recognizes intact and N-terminal human PTH was used because GW-1 antibody recognizes human PTH poorly."}, "net positive charge": {"experiment": "net positive charge", "format": "physicochemical"}},
  "data": [
    {"smiles": "COc1cccc([C@@H](C)NCCCc2ccccc2Cl)c1", "note": "[NPS R-568, (R)-(+)-N-[3-(2-chlorophenyl)propyl]-α-methyl-3-methoxybenzylamine]", "values": [
      {"measurement": "hypocalcemic response in parathyroidectomized rats", "setting": "[1]", "value": "fails to elicit a hypocalcemic response"},
      {"measurement": "hypocalcemic response after prior complete nephrectomy", "setting": "[2]", "value": "only marginally affected"},
      {"measurement": "Serum Calcitonin", "setting": "[3]; 20 mg oral, 0 h", "value": 3.2, "unit": "pg/mL"},
      {"measurement": "Serum Ionized Calcium", "setting": "[3]; 20 mg oral, 0 h", "value": 1.26, "unit": "mM"},
      {"measurement": "Serum PTH", "setting": "[3]; 20 mg oral, 0 h", "value": 31, "unit": "pg/mL"},
      {"measurement": "Serum Calcitonin", "setting": "[3]; 20 mg oral, 0.5 h", "value": 3.8, "unit": "pg/mL"},
      {"measurement": "Serum Ionized Calcium", "setting": "[3]; 20 mg oral, 0.5 h", "value": 1.26, "unit": "mM"},
      {"measurement": "Serum PTH", "setting": "[3]; 20 mg oral, 0.5 h", "value": 23, "unit": "pg/mL"},
      {"measurement": "Serum Calcitonin", "setting": "[3]; 20 mg oral, 1 h", "value": 3.2, "unit": "pg/mL"},
      {"measurement": "Serum Ionized Calcium", "setting": "[3]; 20 mg oral, 1 h", "value": 1.26, "unit": "mM"},
      {"measurement": "Serum PTH", "setting": "[3]; 20 mg oral, 1 h", "value": 18, "unit": "pg/mL"},
      {"measurement": "Serum Calcitonin", "setting": "[3]; 20 mg oral, 2 h", "value": 4.5, "unit": "pg/mL"},
      {"measurement": "Serum Ionized Calcium", "setting": "[3]; 20 mg oral, 2 h", "value": 1.26, "unit": "mM"},
      {"measurement": "Serum PTH", "setting": "[3]; 20 mg oral, 2 h", "value": 24, "unit": "pg/mL"},
      {"measurement": "Serum Calcitonin", "setting": "[3]; 20 mg oral, 4 h", "value": 4.2, "unit": "pg/mL"},
      {"measurement": "Serum Ionized Calcium", "setting": "[3]; 20 mg oral, 4 h", "value": 1.26, "unit": "mM"},
      {"measurement": "Serum PTH", "setting": "[3]; 20 mg oral, 4 h", "value": 34, "unit": "pg/mL"},
      {"measurement": "Serum Calcitonin", "setting": "[3]; 20 mg oral, 8 h", "value": 3.9, "unit": "pg/mL"},
      {"measurement": "Serum Ionized Calcium", "setting": "[3]; 20 mg oral, 8 h", "value": 1.26, "unit": "mM"},
      {"measurement": "Serum PTH", "setting": "[3]; 20 mg oral, 8 h", "value": 34, "unit": "pg/mL"},
      {"measurement": "Serum Calcitonin", "setting": "[3]; 20 mg oral, 12 h", "value": 3.2, "unit": "pg/mL"},
      {"measurement": "Serum Ionized Calcium", "setting": "[3]; 20 mg oral, 12 h", "value": 1.23, "unit": "mM"},
      {"measurement": "Serum PTH", "setting": "[3]; 20 mg oral, 12 h", "value": 48, "unit": "pg/mL"},
      {"measurement": "Serum Calcitonin", "setting": "[3]; 20 mg oral, 24 h", "value": 3.6, "unit": "pg/mL"},
      {"measurement": "Serum Ionized Calcium", "setting": "[3]; 20 mg oral, 24 h", "value": 1.29, "unit": "mM"},
      {"measurement": "Serum PTH", "setting": "[3]; 20 mg oral, 24 h", "value": 32, "unit": "pg/mL"},
      {"measurement": "Serum Calcitonin", "setting": "[3]; 240 mg oral, 0 h", "value": 5.8, "unit": "pg/mL"},
      {"measurement": "Serum Ionized Calcium", "setting": "[3]; 240 mg oral, 0 h", "value": 1.26, "unit": "mM"},
      {"measurement": "Serum PTH", "setting": "[3]; 240 mg oral, 0 h", "value": 29, "unit": "pg/mL"},
      {"measurement": "Serum Calcitonin", "setting": "[3]; 240 mg oral, 0.5 h", "value": 4.8, "unit": "pg/mL"},
      {"measurement": "Serum Ionized Calcium", "setting": "[3]; 240 mg oral, 0.5 h", "value": 1.26, "unit": "mM"},
      {"measurement": "Serum PTH", "setting": "[3]; 240 mg oral, 0.5 h", "value": 18, "unit": "pg/mL"},
      {"measurement": "Serum Calcitonin", "setting": "[3]; 240 mg oral, 1 h", "value": 6.5, "unit": "pg/mL"},
      {"measurement": "Serum Ionized Calcium", "setting": "[3]; 240 mg oral, 1 h", "value": 1.25, "unit": "mM"},
      {"measurement": "Serum PTH", "setting": "[3]; 240 mg oral, 1 h", "value": 6, "unit": "pg/mL"},
      {"measurement": "Serum Calcitonin", "setting": "[3]; 240 mg oral, 2 h", "value": 7.5, "unit": "pg/mL"},
      {"measurement": "Serum Ionized Calcium", "setting": "[3]; 240 mg oral, 2 h", "value": 1.23, "unit": "mM"},
      {"measurement": "Serum PTH", "setting": "[3]; 240 mg oral, 2 h", "value": 6, "unit": "pg/mL"},
      {"measurement": "Serum Calcitonin", "setting": "[3]; 240 mg oral, 4 h", "value": 6.1, "unit": "pg/mL"},
      {"measurement": "Serum Ionized Calcium", "setting": "[3]; 240 mg oral, 4 h", "value": 1.19, "unit": "mM"},
      {"measurement": "Serum PTH", "setting": "[3]; 240 mg oral, 4 h", "value": 10, "unit": "pg/mL"},
      {"measurement": "Serum Calcitonin", "setting": "[3]; 240 mg oral, 8 h", "value": 4.7, "unit": "pg/mL"},
      {"measurement": "Serum Ionized Calcium", "setting": "[3]; 240 mg oral, 8 h", "value": 1.16, "unit": "mM"},
      {"measurement": "Serum PTH", "setting": "[3]; 240 mg oral, 8 h", "value": 27, "unit": "pg/mL"},
      {"measurement": "Serum Calcitonin", "setting": "[3]; 240 mg oral, 12 h", "value": 5.3, "unit": "pg/mL"},
      {"measurement": "Serum Ionized Calcium", "setting": "[3]; 240 mg oral, 12 h", "value": 1.18, "unit": "mM"},
      {"measurement": "Serum PTH", "setting": "[3]; 240 mg oral, 12 h", "value": 35, "unit": "pg/mL"},
      {"measurement": "Serum Calcitonin", "setting": "[3]; 240 mg oral, 24 h", "value": 8.3, "unit": "pg/mL"},
      {"measurement": "Serum Ionized Calcium", "setting": "[3]; 240 mg oral, 24 h", "value": 1.23, "unit": "mM"},
      {"measurement": "Serum PTH", "setting": "[3]; 240 mg oral, 24 h", "value": 34, "unit": "pg/mL"},
      {"measurement": "Serum Calcitonin", "setting": "[3]; 400 mg oral, 0 h", "value": 3.4, "unit": "pg/mL"},
      {"measurement": "Serum Ionized Calcium", "setting": "[3]; 400 mg oral, 0 h", "value": 1.24, "unit": "mM"},
      {"measurement": "Serum PTH", "setting": "[3]; 400 mg oral, 0 h", "value": 33, "unit": "pg/mL"},
      {"measurement": "Serum Calcitonin", "setting": "[3]; 400 mg oral, 0.5 h", "value": 4.0, "unit": "pg/mL"},
      {"measurement": "Serum Ionized Calcium", "setting": "[3]; 400 mg oral, 0.5 h", "value": 1.26, "unit": "mM"},
      {"measurement": "Serum PTH", "setting": "[3]; 400 mg oral, 0.5 h", "value": 13, "unit": "pg/mL"},
      {"measurement": "Serum Calcitonin", "setting": "[3]; 400 mg oral, 1 h", "value": 6.0, "unit": "pg/mL"},
      {"measurement": "Serum Ionized Calcium", "setting": "[3]; 400 mg oral, 1 h", "value": 1.25, "unit": "mM"},
      {"measurement": "Serum PTH", "setting": "[3]; 400 mg oral, 1 h", "value": 9, "unit": "pg/mL"},
      {"measurement": "Serum Calcitonin", "setting": "[3]; 400 mg oral, 2 h", "value": 7.1, "unit": "pg/mL"},
      {"measurement": "Serum Ionized Calcium", "setting": "[3]; 400 mg oral, 2 h", "value": 1.22, "unit": "mM"},
      {"measurement": "Serum PTH", "setting": "[3]; 400 mg oral, 2 h", "value": 8, "unit": "pg/mL"},
      {"measurement": "Serum Calcitonin", "setting": "[3]; 400 mg oral, 4 h", "value": 5.2, "unit": "pg/mL"},
      {"measurement": "Serum Ionized Calcium", "setting": "[3]; 400 mg oral, 4 h", "value": 1.19, "unit": "mM"},
      {"measurement": "Serum PTH", "setting": "[3]; 400 mg oral, 4 h", "value": 11, "unit": "pg/mL"},
      {"measurement": "Serum Calcitonin", "setting": "[3]; 400 mg oral, 8 h", "value": 3.8, "unit": "pg/mL"},
      {"measurement": "Serum Ionized Calcium", "setting": "[3]; 400 mg oral, 8 h", "value": 1.13, "unit": "mM"},
      {"measurement": "Serum PTH", "setting": "[3]; 400 mg oral, 8 h", "value": 20, "unit": "pg/mL"},
      {"measurement": "Serum Calcitonin", "setting": "[3]; 400 mg oral, 12 h", "value": 3.7, "unit": "pg/mL"},
      {"measurement": "Serum Ionized Calcium", "setting": "[3]; 400 mg oral, 12 h", "value": 1.15, "unit": "mM"},
      {"measurement": "Serum PTH", "setting": "[3]; 400 mg oral, 12 h", "value": 31, "unit": "pg/mL"},
      {"measurement": "Serum Calcitonin", "setting": "[3]; 400 mg oral, 24 h", "value": 3.0, "unit": "pg/mL"},
      {"measurement": "Serum Ionized Calcium", "setting": "[3]; 400 mg oral, 24 h", "value": 1.22, "unit": "mM"},
      {"measurement": "Serum PTH", "setting": "[3]; 400 mg oral, 24 h", "value": 31, "unit": "pg/mL"},
      {"measurement": "effect on serum ionized calcium (summary)", "setting": "[3]; human, higher oral doses", "value": "decrease in serum ionized calcium concentration"},
      {"measurement": "effect on plasma PTH (summary)", "setting": "[3]; human, oral", "value": "transient dose-dependent decrease in plasma PTH concentration"},
      {"measurement": "effect on serum calcitonin (summary)", "setting": "[3]; human, oral", "value": "no apparent change in serum calcitonin"}
    ]},
    {"smiles": "NC[C@@H]1O[C@H](O[C@H]2[C@@H](O)[C@H](O[C@@H]3[C@@H](O)[C@H](N)C[C@H](N)[C@H]3O[C@H]3O[C@H](CN)[C@@H](O)[C@H](O)[C@H]3N)O[C@@H]2CO)[C@H](N)[C@@H](O)[C@@H]1O", "note": "[Neomycin]", "values": [
      {"measurement": "inhibition of PTH secretion", "setting": "bovine parathyroid cells", "value": "inhibited PTH secretion to the same extent as extracellular Ca^2+"},
      {"measurement": "inhibition of PTH secretion", "setting": "human parathyroid cells", "value": "inhibited PTH secretion from human parathyroid cells"},
      {"measurement": "Net (+) Charge", "setting": "net positive charge; Table 1, at physiological pH", "value": "+6"},
      {"measurement": "net positive charge at pH 7.3", "setting": "net positive charge; pH 7.3", "value": "+6"}
    ]}
  ]
}
